# Measurements: patent publication US20250333394A1, “Tiparp Inhibitor Compounds” (AbbVie Inc., priority 2024, published 2025)
# Columns and labels:
# TIPARP GST-(TEV) = TIPARP GST-(TEV) (Homo sapiens (Human), UniProt Q7Z3E1); assay: TR-FRET binding assay, TIPARP
# Summary of the method: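 N-terminal GST-TEV-tagged human TIPARP with protein/probe mix in 50 mM Tris-HCl pH 8.0, 5 mM MgCl2, 5 µM ZnCl2, 1 mM DTT, 0.15% BSA, 0.01% Triton X-100, plus 1 nM Tb-anti-GST antibody. Compounds at 30 µM to 0.5 nM final, 3-fold steps. TR-FRET ratio read after 2 h at ambient temperature.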
# PARP1 GST = PARP1 GST (Homo sapiens (Human), UniProt P09874); assay: TR-FRET binding assay, PARP1; conditions: Probe 2, 2 hours incubation
# Summary of the method: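 Serially diluted compounds, final 30 μM down to 0.5 nM, incubated 2 h at ambient temperature with GST-tagged protein/probe mix plus 1 nM Tb-anti-GST antibody. Buffer: 50 mM Tris-HCl pH 8.0, 5 mM MgCl2, 5 μM ZnCl2, 1 mM DTT, 0.15% BSA, 0.01% Triton X-100. Binding read as TR-FRET ratio.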
# NCI-H1373 cells = assay: NCI-H1373 CellTiter-Glo cell assay for TIPARP inhibition; format: cell-based, human; conditions: Homo sapiens, NCI-H1373, 144 h; 6 days, 100 nM 10-Cl-BBQ in medium; read-out: NCI-H1373 CTG EC50
# Summary of the method: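 NCI-H1373 cells (1000/well) grown in RPMI 1640 with 10% FBS and 100 nM 10-Cl-BBQ, exposed to compounds from 30 μM to 0.5 nM final in 3-fold steps for 6 days at 37° C. Cell number read on day 7 by CellTiter-Glo luminescence.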
# MC-38 (Ker) tumors = assay: MC-38 (Ker) syngeneic model efficacy; format: in vivo, mouse; conditions: PO once daily up to 21 days, C57BL/6 mice
# Method: The murine cell line MC-38 derived from C57BL6 murine colon adenocarcinoma cells was obtained from Kerafast (Boston, MA, USA). A suspension of 2.5×10^5 cells in culture medium mixed with Matrigel® (Corning Life Sciences, Lowell, MA, USA; 1:1, volume:volume) was injected subcutaneously in the right hind flank of female C57BL/6 mice to generate tumor formation. Treatment started when the size of the flank tumors was approximately 120 mm^3. Vehicle and four different doses of Example 1 were administered once daily to each of eight mice at each dose level for up to 21 days. Each administration consisted of a single 0.2 mL oral (PO) dose in a vehicle formulation (10% ethanol, 30% PEG300, and 60% PHOSAL® 50 PG).
# TIPARP GST-(TEV), sequence (Q7Z3E1 441-657): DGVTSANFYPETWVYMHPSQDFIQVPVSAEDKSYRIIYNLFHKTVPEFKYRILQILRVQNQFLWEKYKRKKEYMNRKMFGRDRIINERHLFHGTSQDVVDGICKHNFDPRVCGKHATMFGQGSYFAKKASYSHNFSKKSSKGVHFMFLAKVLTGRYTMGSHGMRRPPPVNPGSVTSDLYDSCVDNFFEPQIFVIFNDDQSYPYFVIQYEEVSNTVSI
# PARP1 GST, sequence (P09874 whole entry): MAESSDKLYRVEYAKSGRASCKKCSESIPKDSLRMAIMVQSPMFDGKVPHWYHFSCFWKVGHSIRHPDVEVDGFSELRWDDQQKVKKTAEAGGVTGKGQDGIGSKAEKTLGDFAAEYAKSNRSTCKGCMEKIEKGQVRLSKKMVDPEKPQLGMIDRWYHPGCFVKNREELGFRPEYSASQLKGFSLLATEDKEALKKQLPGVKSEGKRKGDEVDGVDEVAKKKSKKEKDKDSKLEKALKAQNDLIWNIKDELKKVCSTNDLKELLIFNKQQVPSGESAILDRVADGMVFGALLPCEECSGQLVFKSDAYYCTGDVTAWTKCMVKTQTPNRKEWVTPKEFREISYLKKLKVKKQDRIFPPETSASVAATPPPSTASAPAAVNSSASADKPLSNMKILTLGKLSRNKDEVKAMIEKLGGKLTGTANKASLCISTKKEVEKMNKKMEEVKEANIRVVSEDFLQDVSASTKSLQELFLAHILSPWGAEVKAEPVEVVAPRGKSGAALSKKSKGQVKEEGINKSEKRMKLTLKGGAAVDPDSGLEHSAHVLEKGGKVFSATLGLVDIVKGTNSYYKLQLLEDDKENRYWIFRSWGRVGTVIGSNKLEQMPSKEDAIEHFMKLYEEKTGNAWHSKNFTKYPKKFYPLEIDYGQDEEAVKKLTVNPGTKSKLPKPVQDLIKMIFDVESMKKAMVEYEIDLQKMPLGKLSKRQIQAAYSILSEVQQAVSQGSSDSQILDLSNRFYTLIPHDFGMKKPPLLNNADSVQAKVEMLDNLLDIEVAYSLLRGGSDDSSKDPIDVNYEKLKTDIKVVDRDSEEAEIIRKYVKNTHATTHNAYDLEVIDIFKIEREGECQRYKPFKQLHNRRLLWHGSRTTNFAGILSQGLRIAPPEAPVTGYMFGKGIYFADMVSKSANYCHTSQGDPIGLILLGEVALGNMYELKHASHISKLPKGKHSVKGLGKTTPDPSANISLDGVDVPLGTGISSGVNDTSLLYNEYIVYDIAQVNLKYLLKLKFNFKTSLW
smiles,measurement,setting,value
"C[C@@H]1CN(c2ncc(C(F)(F)F)cn2)CCN1C(=O)[C@H]1C[C@@H](c2c[nH]c(=O)c(C(F)(F)F)c2)C1 [Example 1, 5-[(1S,3s)-3-{(2R)-2-methyl-4-[5-(trifluoromethyl)pyrimidin-2-yl]piperazine-1-carbonyl}cyclobutyl]-3-(trifluoromethyl)pyridin-2(1H)-one]",IC50,"TIPARP GST-(TEV); TR-FRET, Probe 1, 2 hours incubation",2.4 nM
same,PARP1/TIPARP IC50 Ratio,TIPARP GST-(TEV); ratio of PARP1 GST IC50 to TIPARP GST-(TEV) IC50,1140
same,IC50,PARP1 GST,2740 nM
same,EC50,NCI-H1373 cells,17.2 nM
same,maximum tumor growth inhibition (TGIMax),MC-38 (Ker) tumors; Dose A,46%
same,maximum tumor growth inhibition (TGIMax),MC-38 (Ker) tumors; Dose B,77%
same,maximum tumor growth inhibition (TGIMax),MC-38 (Ker) tumors; Dose C,98%
same,maximum tumor growth inhibition (TGIMax),MC-38 (Ker) tumors; Dose D,99%
